# Source: US10130652B2, “Anti-inflammatory compositions” (INDENA S.P.A., priority 2010, dated 2018)
# Marks after values point to notes of the source that are not given here.
# System: myeloperoxidase (MPO)
# Assay: Myeloperoxidase (MPO) expression/activity inhibition in LPS-stimulated skin PMNs (ELISA on cell supernatants)
# Format: cell-based
# Conditions: human skin PMNs stimulated with LPS, positive reference at 0.1%, 6 hours of incubation
# Protocol: Tamarind Seed Polysaccharide (either alone and in combination with standardized botanical extracts) was tested for its ability to reduce inflammation cellular response through the measurement of the inhibition of myeloperoxidase (MPO) activity in polymorphonuclear neutrophils (PMNs). Inflammation, in particular during the acute phase, causes the migration of PMNs towards the inflammation site by chemotaxis. It is also known that the degree of MPO activity is directly proportional to the number of PMNs present in the tissue and to the inflammatory response. Thus, a reduction of the number of PMNs corresponds to a reduction in the activity of myeloperoxidase and it can he then concluded that the cellular response to inflammation is reduced accordingly.
# Human skin PMNs were cultivated in bacteriological Petri dishes with 100 mm diameter. Cell culture medium was RPMI-1640 supplemented with Penicillin (100 U/ml), Streptomycin (100 mcg/ml), L-glutamin (2 mM) and 10% heat-inactivated and filtered FCS (Foetal Calf Serum). PMNs were then stimulated with the addition of LPS (lipopolysaccharides) to the cultivation media. […]
# After 6 hours of incubation, the overall inhibition of myeloperoxidase (MPO) activity was quantified in the PMNs cell supernatants using an enzyme immunoassay kit (ELISA).
smiles,measurement,value
C[C@@H]1C[C@H]2[C@@H]3CCC4=CC(=O)C=C[C@]4(C)[C@@]3(F)[C@@H](O)C[C@]2(C)[C@@]1(O)C(=O)CO [Dexamethasone],MPO Inhibition of Expression (Δ % vs. basal),−30%*
